The values below are quoted from earlier work in patent US20100260755A1, “IBUDILAST AND IMMUNOMODULATORS COMBINATION” (MediciNova, Inc., priority 2009, published 2010).

The subject of data set [1] is experimental autoimmune encephalomyelitis. The following applies: in vivo.
Data set [2] has as its system multiple sclerosis patients. The note with it: daily injections, exacerbating-remitting MS.
The test system of data set [3] is T-cells isolated from peripheral blood of MS patients. The note with it: in vitro.

Regarding Glatiramer acetate, the “effect on experimental autoimmune encephalomyelitis (EAE)” value in data set [1] is given as “suppress”. Further, in data set [2], the “exacerbations versus control patients” value was “fewer exacerbations” and the “increases in disability status versus control patients” value is “smaller increases”. In the data set with glial cells, the “production of inflammatory mediators TNF-α, nitric oxide, superoxide by glial cells” value is given as “effectively suppress”. The “IL-5 and IL-13 cytokine secretion” value in data set [3] is “induces”.
